Measurements: US10570129B2 (Zoetis Services LLC, priority 2015, dated 2020)

Legend:
Haemonchus contortus L3 = assay: microbe, parasite or virus in culture; format: cell-based; settings: for minimal effective concentration: Haemonchus contortus, 96 h, read-out: HcL3 Minimal Effective Concentration (MEC)
[1] = system: Trichostrongylus colubriformis; assay: Jird efficacy model; format: in vivo; settings: Trichostrongylus colubriformis, sc, 96 h, read-out: Jird % (percentage efficacy)
D. immitis microfilariae = assay: Dirofilaria immitis, microfilariae (DiMF) in vitro motility assay; format: cell-based; settings: for minimal effective concentration: Dirofilaria immitis, 72 h, read-out: DiMF minimally effective dose (MEC)

| Compound | minimal effective concentration (Haemonchus contortus L3) | inhibition in vivo at 10 mg/kg [1] | minimal effective concentration (D. immitis microfilariae) | HcL3 Minimal Effective Concentration (MEC) (Haemonchus contortus L3) | DiMF minimally effective dose (MEC) (D. immitis microfilariae; decrease in microfilariae motility by subjective visual assessment, observed at 72 hours) |
| --- | --- | --- | --- | --- | --- |
| N#Cc1ccc2c(c1)c1c(n2C(=O)NCc2ccnc(F)c2)CCN(C/C=C/c2cc(F)c(Cl)c(F)c2)C1 [Example 99, (E)-2-(3-(4-chloro-3,5-difluorophenyl)allyl)-8-cyano-N-((2-fluoropyridin-4-yl)methyl)-1,2,3,4-tetrahydro-5H-pyrido[4,3-b]indole-5-carboxamide] | 0.1 µM | 100% | 10 µM | – | – |
| O=C(NCc1ccnc(F)c1)n1c2c(c3cc(C(F)(F)F)ccc31)CN(C/C=C/c1ccc(F)cc1F)CC2 [Example 417, (E)-2-(3-(2,4-difluorophenyl)allyl)-N-((2-fluoropyridin-4-yl)methyl)-8-(trifluoromethyl)-1,2,3,4-tetrahydro-5H-pyrido[4,3-b]indole-5-carboxamide] | 5.7 µM | 100% | 10 µM | – | – |
| O=C(NCc1ccnc(Cl)c1)n1c2c(c3cc(OC(F)(F)F)ccc31)CN(C/C=C/c1ccc(Cl)cc1)CC2 [Example 391, (E)-2-(3-(4-chlorophenyl)allyl)-N-((2-chloropyridin-4-yl)methyl)-8-(trifluoromethoxy)-1,2,3,4-tetrahydro-5H-pyrido[4,3-b]indole-5-carboxamide] | 1 µM | 100% | 32.1 µM | – | – |
| O=C(NCc1ccnc(Cl)c1)n1c2c(c3ccc(C(F)(F)F)cc31)CN(C/C=C/c1ccc(Cl)cc1)CC2 [Example 156, (E)-2-(3-(4-chlorophenyl)allyl)-N-((2-chloropyridin-4-yl)methyl)-7-(trifluoromethyl)-1,2,3,4-tetrahydro-5H-pyrido[4,3-b]indole-5-carboxamide] | 0.5 µM | 99% | 33 µM | – | – |
| N#Cc1ccc2c3c(n(C(=O)NCc4ccnc(Cl)c4)c2c1)CCN(C/C=C/c1ccc(F)cc1)C3 [Example 36, (E)-N-((2-chloropyridin-4-yl)methyl)-7-cyano-2-(3-(4-fluorophenyl)allyl)-1,2,3,4-tetrahydro-5H-pyrido[4,3-b]indole-5-carboxamide] | 5.7 µM | 100% | 3.3 µM | – | – |
| N#Cc1ccc2c(c1)c1c(n2C(=O)NCc2ccnc(Cl)c2)CCN(C/C=C/c2ccc(F)cc2F)C1 [Example 88, (E)-N-((2-chloropyridin-4-yl)methyl)-8-cyano-2-(3-(2,4-difluorophenyl)allyl)-1,2,3,4-tetrahydro-5H-pyrido[4,3-b]indole-5-carboxamide] | 0.1 µM | 99% | 3.3 µM | – | – |
| N#Cc1ccc2c3c(n(C(=O)NCc4ccnc(Cl)c4)c2c1)CCN(C/C=C/c1ccc(F)c(F)c1F)C3 [Example 13, (E)-N-((2-chloropyridin-4-yl)methyl)-7-cyano-2-(3-(2,3,4-trifluorophenyl)allyl)-1,2,3,4-tetrahydro-5H-pyrido[4,3-b]indole-5-carboxamide] | 1.8 µM | 100% | 10 µM | – | – |
| N#Cc1ccc2c3c(n(C(=O)NCc4ccnc(Cl)c4)c2c1)CCN(C/C=C/c1cc(F)cc(F)c1)C3 [Example 30, (E)-N-((2-chloropyridin-4-yl)methyl)-7-cyano-2-(3-(3,5-difluorophenyl)allyl)-1,2,3,4-tetrahydro-5H-pyrido[4,3-b]indole-5-carboxamide] | 0.5 µM | 100% | 10 µM | – | – |
| O=C(NCc1ccnc(Cl)c1)n1c2c(c3cc(N4CCOCC4)ccc31)CN(C/C=C/c1ccc(Cl)cc1)CC2 [Example 505, (E)-2-(3-(4-chlorophenyl)allyl)-N-((2-chloropyridin-4-yl)methyl)-8-morpholino-1,2,3,4-tetrahydro-5H-pyrido[4,3-b]indole-5-carboxamide] | 10 µM | 100% | 13.5 µM | – | – |
| N#Cc1ccc2c3c(n(C(=O)NCc4ccnc(Cl)c4)c2c1)CCN(C/C=C/c1c(F)cc(Cl)cc1F)C3 [Example 6, (E)-2-(3-(4-chloro-2,6-difluorophenyl)allyl)-N-((2-chloropyridin-4-yl)methyl)-7-cyano-1,2,3,4-tetrahydro-5H-pyrido[4,3-b]indole-5-carboxamide] | 2.4 µM | 99% | 18.2 µM | – | – |
| O=C(NCc1ccnc(Cl)c1)n1c2c(c3cc(Cl)ccc31)CN(C/C=C/c1ccc(OC(F)(F)F)cc1)CC2 [Example 245, (E)-8-chloro-N-((2-chloropyridin-4-yl)methyl)-2-(3-(4-(trifluoromethoxy)-phenyl)allyl)-1,2,3,4-tetrahydro-5H-pyrido[4,3-b]indole-5-carboxamide] | 3.3 µM | – | 11.9 µM | – | – |
| N#Cc1ccc(/C=C/CN2CCc3c(c4cc(Cl)c(Cl)cc4n3C(=O)NCc3ccnc(Cl)c3)C2)cc1F [Example 275, (E)-7,8-dichloro-N-((2-chloropyridin-4-yl)methyl)-2-(3-(4-cyano-3-fluorophenyl)allyl)-1,2,3,4-tetrahydro-5H-pyrido[4,3-b]indole-5-carboxamide] | 0.3 µM | – | > 100 µM | – | – |
| (E)-N-((2-chloropyridin-4-yl)methyl)-2-(3-(3,4-dichlorophenyl)allyl)-8-(pyrrolidin-1-yl)-1,2,3,4-tetrahydro-5H-pyrido[4,3-b]indole-5-carboxamide [Example 507] | – | – | – | 10.0 µM | 13.5 µM |
| O=C(NCc1ccnc(Cl)c1)n1c2c(c3ccc(OC(F)(F)F)cc31)CN(C/C=C/c1ccc(Cl)cc1Cl)CC2 [Example 337, (E)-N-((2-chloropyridin-4-yl)methyl)-2-(3-(2,4-dichlorophenyl)allyl)-7-(trifluoromethoxy)-1,2,3,4-tetrahydro-5H-pyrido[4,3-b]indole-5-carboxamide] | 1 µM | – | 18.2 µM | – | – |
| CSc1ccc2c(c1)c1c(n2C(=O)NCc2ccnc(Cl)c2)CCN(C/C=C/c2ccc(Cl)cc2)C1 [Example 447, (E)-2-(3-(4-chlorophenyl)allyl)-N-((2-chloropyridin-4-yl)methyl)-8-(methylthio)-1,2,3,4-tetrahydro-5H-pyrido[4,3-b]indole-5-carboxamide] | 0.5 µM | – | 3.3 µM | – | – |
| Cc1ccc2c(c1)c1c(n2C(=O)NCc2ccnc(Cl)c2)CCN(C/C=C/c2ccc(C(F)(F)F)cc2)C1 [Example 435, (E)-N-((2-chloropyridin-4-yl)methyl)-8-methyl-2-(3-(4-(trifluoromethyl)-phenyl)allyl)-1,2,3,4-tetrahydro-5H-pyrido[4,3-b]indole-5-carboxamide] | 5.7 µM | – | 5.7 µM | – | – |
| O=C(NCc1ccnc(Cl)c1)n1c2c(c3c(C(F)(F)F)cc(F)cc31)CN(C/C=C/c1ccc(F)cc1)CC2 [Example 324, (E)-N-((2-chloropyridin-4-yl)methyl)-7-fluoro-2-(3-(4-fluorophenyl)allyl)-9-(trifluoromethyl)-1,2,3,4-tetrahydro-5H-pyrido[4,3-b]indole-5-carboxamide] | 3.3 µM | – | 10 µM | – | – |
